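Growth conditions: 96-well plates. Treatment: test compound, 48 hours, 5 concentrations. Analysis: linear interpolation between bracketing concentrations; unreached endpoints set to highest concentration. Definition used: TGI = concentration required for complete inhibition of growth.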
Key:
Test in all cases: growth of human tumour cells (NCI), 48 h
786-0 renal = tested on: 786-0 renal
SF-295 CNS = tested on: SF-295 CNS
CAKI-1 renal = tested on: CAKI-1 renal
HCT-15 colon = tested on: HCT-15 colon
MALME-3M melanoma = tested on: MALME-3M melanoma
A549 NSCLC = tested on: A549 NSCLC
NCI-H460 lung = tested on: NCI-H460 lung
MDA-MB-435 = tested on: MDA-MB-435
NCI-H226 lung = tested on: NCI-H226 lung
BT-549 breast = tested on: BT-549 breast
SF-268 CNS = tested on: SF-268 CNS

Compound: Cc1cc2c(cc1Cl)Sc1nnc(C)n1S2(=O)=O
- TGI (786-0 renal): 44.5 µM
- TGI (SF-295 CNS): 33.8 µM
- TGI (CAKI-1 renal): 29.9 µM
- TGI (HCT-15 colon): 25.5 µM
- TGI (MALME-3M melanoma): 22.8 µM
- TGI (A549 NSCLC): 97.2 µM
- TGI (NCI-H460 lung): 78.5 µM
- TGI (MDA-MB-435): 26.6 µM
- TGI (NCI-H226 lung): > 100 µM
- TGI (BT-549 breast): 29.7 µM
- TGI (SF-268 CNS): 42.4 µM

Compound: CC1(C)SC2C(NC(=O)Cc3ccccc3)C(=O)N2C1C(=O)O (centres undefined)
- TGI (786-0 renal): > 100 µM
- TGI (SF-295 CNS): > 100 µM
- TGI (CAKI-1 renal): > 100 µM
- TGI (HCT-15 colon): > 100 µM
- TGI (MALME-3M melanoma): > 100 µM
- TGI (A549 NSCLC): > 100 µM
- TGI (NCI-H460 lung): > 100 µM
- TGI (MDA-MB-435): > 100 µM
- TGI (NCI-H226 lung): > 100 µM
- TGI (BT-549 breast): > 100 µM
- TGI (SF-268 CNS): > 100 µM

Compound: COc1ccc(S(=O)Cc2cc(OC)ccc2OC)cc1 (centres undefined)
- TGI (786-0 renal): > 100 µM
- TGI (SF-295 CNS): > 100 µM
- TGI (CAKI-1 renal): > 100 µM
- TGI (HCT-15 colon): > 100 µM
- TGI (MALME-3M melanoma): > 100 µM
- TGI (A549 NSCLC): > 100 µM
- TGI (NCI-H460 lung): > 100 µM
- TGI (MDA-MB-435): > 100 µM
- TGI (NCI-H226 lung): > 100 µM
- TGI (BT-549 breast): > 100 µM
- TGI (SF-268 CNS): > 100 µM

Compound: COc1ccc2c(-c3ccc(O)cc3)c(Oc3ccccc3)c(=O)oc2c1
- TGI (786-0 renal): > 52.1 µM
- TGI (SF-295 CNS): > 100 µM
- TGI (CAKI-1 renal): > 100 µM
- TGI (HCT-15 colon): > 100 µM
- TGI (MALME-3M melanoma): > 86.3 µM
- TGI (A549 NSCLC): > 43 µM
- TGI (NCI-H460 lung): > 100 µM
- TGI (MDA-MB-435): > 100 µM
- TGI (NCI-H226 lung): > 87.2 µM
- TGI (BT-549 breast): > 100 µM
- TGI (SF-268 CNS): > 100 µM

Compound: CSCCCNC(=O)c1csc([C@@H](CSC)NC(=O)CCNC(=O)[C@@H](NC(=O)OCC(Br)(Br)Br)C(C)O)n1 (some centres undefined)
- TGI (786-0 renal): > 100 µM
- TGI (SF-295 CNS): > 100 µM
- TGI (CAKI-1 renal): > 100 µM
- TGI (HCT-15 colon): > 100 µM
- TGI (MALME-3M melanoma): > 100 µM
- TGI (A549 NSCLC): > 100 µM
- TGI (NCI-H460 lung): > 100 µM
- TGI (MDA-MB-435): > 100 µM
- TGI (NCI-H226 lung): > 100 µM
- TGI (BT-549 breast): > 100 µM
- TGI (SF-268 CNS): > 100 µM

Compound: O=C(/C(Cl)=C/c1ccccc1)c1ccccc1
- TGI (786-0 renal): 3.37 µM
- TGI (SF-295 CNS): 37.6 µM
- TGI (CAKI-1 renal): 3.97 µM
- TGI (HCT-15 colon): 8.35 µM
- TGI (MALME-3M melanoma): 4.39 µM
- TGI (A549 NSCLC): 34.1 µM
- TGI (NCI-H460 lung): 30.5 µM
- TGI (MDA-MB-435): 9.52 µM
- TGI (NCI-H226 lung): 18.1 µM
- TGI (BT-549 breast): 6.49 µM
- TGI (SF-268 CNS): 21.9 µM

Compound: COc1ccc(C2c3cc4c(cc3OC(N3CCOCC3)C2C)OCO4)c(OC)c1 (centres undefined)
- TGI (786-0 renal): 41.1 µM
- TGI (SF-295 CNS): 16.3 µM
- TGI (CAKI-1 renal): 62.1 µM
- TGI (HCT-15 colon): > 75.9 µM
- TGI (MALME-3M melanoma): 36.6 µM
- TGI (A549 NSCLC): 58 µM
- TGI (NCI-H460 lung): 24.4 µM
- TGI (MDA-MB-435): 8.83 µM
- TGI (NCI-H226 lung): 14.4 µM
- TGI (BT-549 breast): 87.7 µM
- TGI (SF-268 CNS): 53 µM

Compound: COC(=O)c1ccc(NCC2=CC(=O)c3ccccc3C2=O)cc1
- TGI (786-0 renal): 43.2 µM
- TGI (SF-295 CNS): 35.1 µM
- TGI (CAKI-1 renal): 28 µM
- TGI (HCT-15 colon): 33.1 µM
- TGI (MALME-3M melanoma): 19.9 µM
- TGI (A549 NSCLC): 96.7 µM
- TGI (NCI-H460 lung): 35.6 µM
- TGI (MDA-MB-435): 30.3 µM
- TGI (NCI-H226 lung): 39.2 µM
- TGI (BT-549 breast): 42.2 µM
- TGI (SF-268 CNS): 66.2 µM

Compound: CCOC(=O)C1(Cc2ccccc2)CCN(C(=O)c2ccccc2)C2C1C2(Cl)Cl (centres undefined)
- TGI (786-0 renal): 44.2 µM
- TGI (SF-295 CNS): 77.2 µM
- TGI (CAKI-1 renal): 75 µM
- TGI (HCT-15 colon): > 100 µM
- TGI (MALME-3M melanoma): 51.5 µM
- TGI (A549 NSCLC): > 100 µM
- TGI (NCI-H460 lung): 35.9 µM
- TGI (MDA-MB-435): 48.3 µM
- TGI (NCI-H226 lung): 63.4 µM
- TGI (BT-549 breast): 62.2 µM
- TGI (SF-268 CNS): 91.8 µM

Compound: CC1(C)OC2CN(C(=O)OCc3ccccc3)C(CO)C2O1 (centres undefined)
- TGI (786-0 renal): > 100 µM
- TGI (SF-295 CNS): > 100 µM
- TGI (CAKI-1 renal): > 100 µM
- TGI (HCT-15 colon): > 100 µM
- TGI (MALME-3M melanoma): > 100 µM
- TGI (A549 NSCLC): > 100 µM
- TGI (NCI-H460 lung): > 100 µM
- TGI (MDA-MB-435): > 100 µM
- TGI (NCI-H226 lung): > 100 µM
- TGI (BT-549 breast): > 100 µM
- TGI (SF-268 CNS): > 100 µM

Compound: COc1cc(/C=C2\CCc3cc(OC)c(OC)cc3C2=O)cc(OC)c1
- TGI (786-0 renal): 48.7 µM
- TGI (SF-295 CNS): > 25.1 µM
- TGI (CAKI-1 renal): > 100 µM
- TGI (HCT-15 colon): > 44.3 µM
- TGI (MALME-3M melanoma): > 100 µM
- TGI (A549 NSCLC): > 100 µM
- TGI (NCI-H460 lung): > 100 µM
- TGI (MDA-MB-435): > 100 µM
- TGI (NCI-H226 lung): > 100 µM
- TGI (BT-549 breast): 65.8 µM
- TGI (SF-268 CNS): > 100 µM

Compound: Cc1ccc(NC(=S)NNC(=O)c2cc(-c3ccccc3)nc3ccccc23)cc1C
- TGI (786-0 renal): 33.7 µM
- TGI (SF-295 CNS): 29.6 µM
- TGI (CAKI-1 renal): > 100 µM
- TGI (HCT-15 colon): 60.5 µM
- TGI (MALME-3M melanoma): 43.6 µM
- TGI (A549 NSCLC): 43.7 µM
- TGI (NCI-H460 lung): 38.7 µM
- TGI (MDA-MB-435): 59.5 µM
- TGI (NCI-H226 lung): 90.1 µM
- TGI (BT-549 breast): 44.2 µM
- TGI (SF-268 CNS): > 100 µM

Compound: O=[N+]([O-])/C(C(Cl)=C(Cl)Cl)=C(/Sc1ccccc1)N1CCOCC1
- TGI (786-0 renal): 4.51 µM
- TGI (SF-295 CNS): 36.4 µM
- TGI (CAKI-1 renal): 13 µM
- TGI (HCT-15 colon): 10.9 µM
- TGI (MALME-3M melanoma): 18.2 µM
- TGI (A549 NSCLC): 41.7 µM
- TGI (NCI-H460 lung): 27.1 µM
- TGI (MDA-MB-435): 9.2 µM
- TGI (NCI-H226 lung): 26.5 µM
- TGI (BT-549 breast): 15 µM
- TGI (SF-268 CNS): 17 µM

Compound: CNC=O
- TGI (786-0 renal): > 10000 µM
- TGI (SF-295 CNS): > 10000 µM
- TGI (CAKI-1 renal): > 10000 µM
- TGI (HCT-15 colon): > 10000 µM
- TGI (MALME-3M melanoma): > 10000 µM
- TGI (A549 NSCLC): > 10000 µM
- TGI (NCI-H460 lung): > 10000 µM
- TGI (MDA-MB-435): > 10000 µM
- TGI (NCI-H226 lung): > 10000 µM
- TGI (BT-549 breast): > 10000 µM
- TGI (SF-268 CNS): > 10000 µM

Reference: PubChem BioAssay (NCI)
